Where two headings read alike, the source gives them in different places.
Experiments:
[1] = tested on: BT-474; assay: MTS anti-proliferative assay, BT-474; type: cell-based; settings: Homo sapiens, 168 h, BT-474, luminal B, treatment for 7 days
Protocol: (§1) The anti-proliferative effects and IC50 values of the compounds in the BC cell line panel were determined by MTS assay.
(§2) The cells, except Sk-Br-3, AU565 and BT-474 were maintained in a mixture of Dulbecco's modified Eagle's medium and Ham's F12 medium (1:1) (DMEM/F12) without phenol red supplemented with 5% fetal bovine serum (FBS) and 1× antibiotic-antimycotic (100 U/mL penicillin G sodium, 100 μg/mL streptomycin sulfate and 0.25 μg/mL amphotericin B) and were plated separately in flasks in a humidified incubator (5% CO2: 95% air, 37° C.). The media used for Sk-Br-3, AU565 and BT-474 cell lines was described in (1) Brueggemeier et al., J. Steroid Biochem. Mol. Biol., 2005; 95:129-136; and (2) Diaz-Cruz et al., J. Clin. Endocrinol. Metab., 2005; 90:2563-2570. The media were changed every 2-days. When the cells grew to about 80% confluence, cells were washed twice with calcium- and magnesium-free phosphate-buffered saline (PBS, pH 7.4), and then trypsinized with 0.05% trypsin-5.3 mm EDTA. The trypsinization was stopped by addition of culture medium with 5% FBS. After centrifugation, the dissociated cells were resuspended in the same medium and subcultured into 75-cm^2 culture flasks at a ratio of 1:5 flasks.
(§3) The BC cells were seeded at the density of 1,000 cells per well (100 μL) into 96 well plate in DMEM/F-12 (1:1), supplemented with 5% (v/v) FCS and incubated overnight at 37° C. Test compounds are solubilized in dimethyl sulfoxide (DMSO), diluted in cell culture medium to a range of final assay concentrations of 1 nM to 10 μM, added to cells and incubated for 7 days at 37° C. The medium including the test compound are refreshed at days 3 and 5. The MTS assay are carried out by using the CellTiter 96® AQueous One Solution Cell Proliferation Assay kit following the manufacturer's instruction.

[2] = target: T1, Mps1/TTK kinase (recombinant GST-Mps1) (Homo sapiens, UniProt P33981); assay: Mps1 in vitro kinase assay with Cetn2 substrate; type: biochemical; settings: read-out: IC50, in vitro kinase activity of Mps1
T1 sequence (P33981 1-857): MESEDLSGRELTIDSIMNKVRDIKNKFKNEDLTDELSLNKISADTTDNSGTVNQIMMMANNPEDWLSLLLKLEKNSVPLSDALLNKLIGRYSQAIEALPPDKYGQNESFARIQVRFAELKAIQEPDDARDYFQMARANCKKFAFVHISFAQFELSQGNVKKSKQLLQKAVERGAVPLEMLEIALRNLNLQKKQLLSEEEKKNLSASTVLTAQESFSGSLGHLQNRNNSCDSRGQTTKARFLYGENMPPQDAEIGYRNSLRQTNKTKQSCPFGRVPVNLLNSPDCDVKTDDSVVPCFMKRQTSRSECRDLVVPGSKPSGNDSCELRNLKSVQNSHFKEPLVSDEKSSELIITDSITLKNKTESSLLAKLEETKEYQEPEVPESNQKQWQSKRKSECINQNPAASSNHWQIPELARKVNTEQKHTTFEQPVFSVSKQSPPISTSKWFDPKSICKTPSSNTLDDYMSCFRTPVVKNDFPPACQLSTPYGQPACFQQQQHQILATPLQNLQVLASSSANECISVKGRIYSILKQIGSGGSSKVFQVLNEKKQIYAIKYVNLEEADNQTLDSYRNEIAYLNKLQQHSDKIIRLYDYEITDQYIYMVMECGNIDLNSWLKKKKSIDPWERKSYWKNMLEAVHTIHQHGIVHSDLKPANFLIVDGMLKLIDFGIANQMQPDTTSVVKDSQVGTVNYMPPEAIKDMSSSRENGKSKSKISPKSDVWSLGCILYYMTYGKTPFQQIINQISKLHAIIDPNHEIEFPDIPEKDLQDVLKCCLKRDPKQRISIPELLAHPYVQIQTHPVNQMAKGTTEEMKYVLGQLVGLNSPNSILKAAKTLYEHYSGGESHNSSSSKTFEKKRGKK
Protocol: To determine the efficacy of the compounds against Mps1/TTK kinase activity, assays were performed as previously described (11) using recombinant Mps1, Cetn2 (specific substrate), and varying concentration of compound.

[3] = tested on: CAMA-1; assay: MTS anti-proliferative assay, CAMA-1; type: cell-based; settings: Homo sapiens, 168 h, CAMA-1, luminal, treatment for 7 days
Protocol: as §1, §2, §3

[4] = tested on: T47D; assay: MTS anti-proliferative assay, T47D; type: cell-based; settings: Homo sapiens, 168 h, luminal, treatment for 7 days
Protocol: as §1, §2, §3

[5] = tested on: AU565; assay: MTS anti-proliferative assay, AU565; type: cell-based; settings: Homo sapiens, 168 h, AU565, luminal, treatment for 7 days
Protocol: as §1, §2, §3

[6] = tested on: Cal-51 cells; assay: Spindle checkpoint assay, Cal-51; type: cell-based; settings: for abrogating the spindle checkpoint: Cal-51, at 1 μM
Protocol: For spindle checkpoint assays, S-phase arrested cells treated with candidate compounds were released into medium containing the spindle poison nocodazole. Because the spindle checkpoint prevents the metaphase to anaphase transition in the presence of spindle damage, compounds that block the spindle checkpoint will lead to a decreased number of mitotic cells in the presence of nocodazole. Briefly, cells were arrested in S-phase with a 24 hour treatment with 2 mM thymidine. Three hours after removing thymidine to release cells from S-phase arrest, nocodazole was added at 200 ng/mL. After 12 hours in the presence of nocodazole, cells were fixed and stained with mouse anti-cyclin B and Hoechst, and the percentage of cyclin B positive cells with condensed chromosomes was determined in triplicate samples.

[7] = tested on: MCF-7; assay: MTS anti-proliferative assay, MCF-7; type: cell-based; settings: Homo sapiens, MCF7, 168 h, MCF-7, luminal A, treatment for 7 days
Protocol: as §1, §2, §3

[8] = tested on: BT-20; assay: MTS anti-proliferative assay, BT-20; type: cell-based; settings: Homo sapiens, 168 h, BT-20, TNBC, basal A, treatment for 7 days
Protocol: as §1, §2, §3

[9] = tested on: CAL-51; assay: MTS anti-proliferative assay, CAL-51; type: cell-based; settings: Homo sapiens, 168 h, CAL-51, TNBC, basal, treatment for 7 days
Protocol: as §1, §2, §3

[10] = tested on: Sk-Br-3; assay: MTS anti-proliferative assay, Sk-Br-3; type: cell-based; settings: Homo sapiens, 168 h, Sk-Br-3, luminal, treatment for 7 days
Protocol: as §1, §2, §3

[11] = tested on: normal breast epithelial cells; assay: Primary cultures of normal breast epithelial cells; type: cell-based; settings: up to 20 μM
Protocol: No notable cytotoxicity was observed after 24 hours of treatment at concentrations as high as 10 μM.

[12] = tested on: HCC1937; assay: MTS anti-proliferative assay, HCC1937; type: cell-based; settings: Homo sapiens, 168 h, HCC1937, TNBC, basal, treatment for 7 days
Protocol: as §1, §2, §3

[13] = tested on: MDA-MB-231; assay: MTS anti-proliferative assay, MDA-MB-231; type: cell-based; settings: Homo sapiens, 168 h, MDA-MB-231, TNBC, basal B, treatment for 7 days
Protocol: as §1, §2, §3

[14] = additional investigations (text to Table 2)

SMILES | IC50 [1] | IC50 [2, 14] | IC50 ([2]; preliminary investigations) | IC50 [3] | IC50 [4] | IC50 [5] | abrogating the spindle checkpoint [6] | ability of cells to arrest in response to nocodazole ([6]; Cal-51, nocodazole 200 ng/mL, 12 hours) | IC50 [7] | IC50 [8] | IC50 [9] | IC50 [10] | inhibition of normal breast epithelial cells [11] | IC50 [12] | IC50 [13]
COc1cc(N2CCC(O)CC2)ccc1Nc1nc(Nc2ccccc2S(=O)(=O)C(C)C)c2cc[nH]c2n1 [Compound 1, 1-(4-((4-((2-(isopropylsulfonyl)phenyl)amino)-7H-pyrrolo[2,3-d]pyrimidin-2-yl)amino)-3-methoxyphenyl)piperidin-4-ol] | > 10000 nM | 809 nM | 155 nM | 360 nM | > 10000 nM | > 10000 nM | more effective than IN-1, AZ3146, or compound 5 | dose-dependent reduction | 440 nM | 350 nM | 230 nM | > 10000 nM | no inhibition or incomplete dose-response curves | 730 nM | > 10000 nM
COc1cc(N2CCOCC2)ccc1Nc1nc(NC2CCCCC2)c2cc[nH]c2n1 [Compound 13, N4-cyclohexyl-N2-(2-methoxy-4-morpholinophenyl)-7H-pyrrolo[2,3-d]pyrimidine-2,4-diamine] | 50 nM | 356 nM | 30 nM | 1100 nM | > 10000 nM | 900 nM | most effective | – | > 10000 nM | 570 nM | 450 nM | 780 nM | no inhibition or incomplete dose-response curves | 1090 nM | > 10000 nM
